# Target: T1, Corticotropin-releasing factor receptor 1 (Homo sapiens) (UniProt P34998)
# T1 sequence (whole entry): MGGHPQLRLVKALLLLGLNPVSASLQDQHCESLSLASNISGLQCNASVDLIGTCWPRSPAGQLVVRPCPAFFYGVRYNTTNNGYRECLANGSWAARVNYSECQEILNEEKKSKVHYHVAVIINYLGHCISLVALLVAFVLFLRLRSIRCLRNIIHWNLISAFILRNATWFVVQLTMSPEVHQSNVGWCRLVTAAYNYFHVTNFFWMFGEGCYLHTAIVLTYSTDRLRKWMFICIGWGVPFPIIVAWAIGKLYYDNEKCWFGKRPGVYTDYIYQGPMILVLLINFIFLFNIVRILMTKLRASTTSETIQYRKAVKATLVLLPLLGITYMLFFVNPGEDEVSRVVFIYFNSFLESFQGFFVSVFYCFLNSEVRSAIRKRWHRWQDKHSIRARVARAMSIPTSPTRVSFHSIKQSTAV
# Assay: Displacement of [125I]Tyr0sauvagine from human CRF1 receptor expressed in HEK293 cell membrane at 500 nM after 120 mins by gamma scintillation counting analysis
# Type: cell membranes
row,inhibition [%],Structure (SMILES)
1,< 50,CCN(CC)c1nc(C)nc(Nc2ccc(C(C)C)cc2Br)c1SC
2,< 50,CCCCN(CC)c1nc(C)nc(Nc2ccc(C(C)C)cc2Br)c1SCC
3,< 50,CCCCN(CC)c1ncnc(Nc2c(C)cc(C)cc2C)c1SCC
4,< 50,CCSc1c(Nc2c(C)cc(C)cc2C)ncnc1N(CCOC)CCOC
5,< 50,CCCN(CC1CC1)c1ncnc(Nc2c(C)cc(C)cc2C)c1SC
6,< 50,CCN(CC)c1nc(C)nc(Nc2c(C)cc(C)cc2C)c1SC
7,< 50,CCCCN(CC)c1nc(C)nc(Nc2c(C)cc(C)cc2C)c1SCC
8,< 50,CCCN(CC1CC1)c1nc(C)nc(Nc2c(C)cc(C)cc2C)c1SC
9,< 50,CCCN(CCC)c1ncnc(Nc2c(C)cc(C)cc2C)c1SCC
10,< 50,COCCN(CCOC)c1ncnc(Nc2c(C)cc(C)cc2C)c1SC
11,< 50,CCSc1c(Nc2c(C)cc(C)cc2C)nc(C)nc1N(CC)CC
12,< 50,CCCN(CCC)c1nc(C)nc(Nc2ccc(C(C)C)cc2Br)c1SCC
13,< 50,CCSc1c(Nc2ccc(C(C)C)cc2Br)nc(C)nc1N(CCOC)CCOC
14,< 50,CCCN(CC1CC1)c1nc(C)nc(Nc2ccc(C(C)C)cc2Br)c1SC
15,< 50,CCCN(CCC)c1ncnc(Nc2c(C)cc(C)cc2C)c1SC
16,< 50,CCCN(CCC)c1nc(C)nc(Nc2c(C)cc(C)cc2C)c1SC
17,< 50,CCCCN(CC)c1nc(C)nc(Nc2ccc(C(C)C)cc2Br)c1SC
18,< 50,COCCN(CCOC)c1nc(C)nc(Nc2ccc(C(C)C)cc2Br)c1SC
19,< 50,CCSc1c(Nc2c(C)cc(C)cc2C)ncnc1N(CC)CC
20,< 50,CCCN(CCC)c1nc(C)nc(Nc2ccc(C(C)C)cc2Br)c1SC
21,< 50,CCCCN(CC)c1nc(C)nc(Nc2c(C)cc(C)cc2C)c1SC
22,< 50,CCCCN(CC)c1ncnc(Nc2c(C)cc(C)cc2C)c1SC
23,< 50,CCSc1c(Nc2ccc(C(C)C)cc2Br)nc(C)nc1N(CC)CC
24,< 50,CCCN(CC1CC1)c1nc(C)nc(Nc2ccc(C(C)C)cc2Br)c1SCC

# Target: T2, Corticotropin-releasing factor receptor 1 (Homo sapiens, UniProt P34998)
# T2 sequence (P34998 whole entry): T1 sequence (whole entry)
# Assay: (§1) Displacement of [125I]Tyr0sauvagine from human CRF1 receptor expressed in HEK293 cell membrane after 120 mins by gamma scintillation counting analysis
# Type: cell membranes
row,IC50 [µM],Structure (SMILES)
1,0.537,CCCN(CCC)c1nc(C)nc(Nc2c(C)cc(C)cc2C)c1SCC
2,0.275,COCCN(CCOC)c1nc(C)nc(Nc2c(C)cc(C)cc2C)c1SC
3,0.245,CCCN(CC1CC1)c1nc(C)nc(Nc2c(C)cc(C)cc2C)c1SCC
4,0.589,CCSc1c(Nc2c(C)cc(C)cc2C)nc(C)nc1N(CCOC)CCOC
5,0.0186,CCCCN(CC)c1nc(C)nc2c1c(C)c(C)n2-c1c(C)cc(C)cc1C [ANTALARMIN]

# Target: T1, Corticotropin-releasing factor receptor 1 (Homo sapiens)
# Assay: as §1
# Type: cell membranes
row,inhibition,Structure (SMILES)
1,Dose-dependent effect,CCCN(CCC)c1nc(C)nc(Nc2c(C)cc(C)cc2C)c1SCC
2,Dose-dependent effect,COCCN(CCOC)c1nc(C)nc(Nc2c(C)cc(C)cc2C)c1SC
3,Dose-dependent effect,CCCN(CC1CC1)c1nc(C)nc(Nc2c(C)cc(C)cc2C)c1SCC
4,Dose-dependent effect,CCSc1c(Nc2c(C)cc(C)cc2C)nc(C)nc1N(CCOC)CCOC

# — ChEMBL document CHEMBL3232827, “Synthesis of substituted pyrimidines as corticotropin releasing factor (CRF) receptor ligands” (Eur J Med Chem, 2014)
